Here are results for 27 compounds from patent US10030016B2 (Sunesis Pharmaceuticals, Inc., priority 2009, dated 2018).

The target in assay [1] is PDK1 (Homo sapiens (Human), UniProt O15530). The experiment in a line: PDK1 kinase assay (coupled PDK1/AKT/FAM-crosstide assay, IMAP fluorescence polarization). It counts as biochemical. The method in brief:
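PDK1 activity is measured indirectly through activation of a PIFtide-fused AKT2 construct that phosphorylates FAM-crosstide (100 nM). The reaction uses 0.75 nM PDK1, 40 μM ATP, 30 min, 25° C, with IMAP polarization detection.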

The test system of assay [2] is phospho-akt (Thr308) in PC-3 cells. The experiment in a line: Inhibition of phospho-akt (Thr308) in PC-3 cells, MSD phospho-akt 308 ELISA kit. It counts as cell-based. Conditions: Homo sapiens, 2 hours, no serum, read-out: EC50. The method, boiled down: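 Serum-free 2 h compound exposure of overnight-seeded PC-3 cells, threefold dilution series; lysates analysed on blocked MSD plates (3% BSA) for Thr308-phosphorylated Akt, normalised between DMSO and 5 μM wortmannin wells.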

Setting [3] is: inhibition of P308 Akt in PC-3 cells using MSD.
Where [4] appears, read: inhibition of phospo-PDK1 in vitro.
[5] abbreviates: inhibition of P308 Akt in PC-3 cells, MSD.

Structures can show the parent of a compound that is named as a salt. Where two headings read alike, the source gives them in different places. A value given as a limit tells only on which side of the number the result lay.

Sequence of PDK1 (O15530 51-359): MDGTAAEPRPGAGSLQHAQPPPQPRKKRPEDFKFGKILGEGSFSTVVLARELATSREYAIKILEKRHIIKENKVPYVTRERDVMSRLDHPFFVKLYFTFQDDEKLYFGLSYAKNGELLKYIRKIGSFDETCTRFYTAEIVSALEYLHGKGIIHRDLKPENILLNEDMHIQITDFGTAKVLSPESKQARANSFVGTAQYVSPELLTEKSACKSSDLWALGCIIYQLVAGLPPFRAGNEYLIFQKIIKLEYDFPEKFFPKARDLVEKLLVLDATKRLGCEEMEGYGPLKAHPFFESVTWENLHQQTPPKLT

`C[C@H](NC(=O)c1nc(C#N)cnc1NCc1ccc(-c2cnc(N)c(C(=O)N3CCNCC3)n2)cc1)c1ccc(F)c(F)c1` [Example 219, 3-{4-[5-Amino-6-(piperazine-1-carbonyl)-pyrazin-2-yl]-benzylamino}-6-cyano-pyrazine-2-carboxylic acid [(S)-1-(3,4-difluoro-phenyl)-ethyl]-amide]: the IC50 in assay [1] (inhibition of PDK1 in vitro) is under 100 nM. Besides, in assay [2] (setting [3]), the EC50 lay in the range of 1000 to 10000 nM.
For `C[C@H](NC(=O)c1cc(C#N)cnc1NCc1ccc(-c2cnc3[nH]cnc3c2)cc1)c1ccc(F)cc1` [Example 135, (S)-2-(4-(3H-imidazo [4,5-b]pyridin-6-yl)benzylamino)-5-cyano-N-(1-(4-fluorophenyl)ethyl)nicotinamide], in that order: under 100 nM and under 1000 nM.
For the compound `O=C(NCc1ccc(F)cc1)c1cccnc1NCc1ccc(-c2c[nH]c3ncccc23)s1` [Example 1.16, 2-(((5-(1H-pyrrolo[2,3-b]pyridin-3-yl)thiophen-2-yl)methyl)amino)-N-(4-fluorobenzyl)nicotinamide], in assay [1] (setting [4]), the IC50 was in the range of 100 to 1000 nM. Further, the EC50 in assay [2] (PC-3, 2 h, inhibition of P308 Akt in PC-3 cells, MSD) was over 10000 nM.
`Nc1ncnc2c1c(-c1ccc(CNc3ncc(C(F)(F)F)cc3C(=O)Nc3ccc(F)cc3)cc1)cn2C1COC1` [Example 443, 2-(4-(4-amino-7-(oxetan-3-yl)-7H-pyrrolo[2,3-d]pyrimidin-5-yl)benzylamino)-N-(4-fluorophenyl)-5-(trifluoromethyl)nicotinamide] yielded an IC50 in assay [1] (setting [4]) of under 100 nM. In addition, in assay [2] (setting [3]), the EC50 was under 1000 nM.
Take `Nc1ncnc2ccc(-c3ccc(CNc4ncccc4C(=O)NCc4ccc(F)c(F)c4)s3)cc12` [Example 4.4, 2-(((5-(4-aminoquinazolin-6-yl)thiophen-2-yl)methyl)amino)-N-(3,4-difluorobenzyl)nicotinamide]: in assay [1] (setting [4]), the IC50 is under 100 nM. The EC50 in assay [2] (setting [5]) was under 1000 nM.
On the same counts, the results for `CN(C)S(=O)(=O)c1cnc(NCc2ccc(-c3ccc4ncnc(N)c4c3)s2)c(C(=O)NCc2ccc(F)c(F)c2)c1` [Example 8.7.5] are under 100 nM and under 1000 nM.
For `Nc1ncnc2ccc(-c3ccc(CNc4nccnc4C(=O)NCc4cccc(F)c4F)s3)cc12` [Example 3.74, 3-({[5-(4-aminoquinazolin-6-yl)thiophen-2-yl]methyl}amino)-N-(2,3-difluorobenzyl)pyrazine-2-carboxamide (TFA salt)], in that order: 100 to 1000 nM and over 10000 nM.
As to `Nc1cnc(-c2ccc(CNc3ncc(C(F)(F)F)cc3C(=O)NCc3ccc(F)c(F)c3)cn2)cn1` [Example 326], the IC50 in assay [1] (inhibition of PDK1 in vitro) lay within 100 to 1000 nM. The EC50 in assay [2] (setting [3]) is over 10000 nM.
The compound `CNc1ncc2cc(O[C@H](C)CNc3ncc(C#N)cc3C(=O)N[C@@H](C)c3ccc(F)cc3)ccc2n1` [Example 251, 5-cyano-N-((S)-1-(4-fluorophenyl)ethyl)-2-((R)-2-(2-(methylamino)quinazolin-6-yloxy)propylamino)nicotinamide] showed an IC50 in assay [1] (inhibition of PDK1 in vitro) of over 5000 nM. The EC50 in assay [2] (setting [3]) is 1000 to 10000 nM.
For the compound `Nc1n[nH]c2ncc(-c3ccc(CNc4ncc(C(F)(F)F)cc4C(=O)Nc4ccc(F)cc4)cn3)cc12` [Example 57, 2-(((6-(3-amino-1H-pyrazolo[3,4-b]pyridin-5-yl)pyridin-3-yl)methyl)amino)-N-(4-fluorophenyl)-5-(trifluoromethyl)nicotinamide], the IC50 in assay [1] (inhibition of PDK1 in vitro) is under 100 nM. For the same compound, the EC50 in assay [2] (setting [3]) is under 1000 nM.
`Nc1n[nH]c2ncc(-c3ccc(CNc4ncc(C(F)(F)F)cc4C(=O)NCc4cccc(Cl)c4)cc3)cc12` [Example 281, 2-(4-(3-amino-1H-pyrazolo [3,4-b]pyridin-5-yl)benzylamino)-N-(3-chlorobenzyl)-5-(trifluoromethyl)nicotinamide] came in with an IC50 in assay [1] (inhibition of PDK1 in vitro) of under 100 nM. The EC50 in assay [2] (setting [3]) was under 1000 nM.
The compound `C[C@H](NC(=O)c1cccnc1NCc1ccc(-c2cn(C)c3ncnc(N)c23)cc1)c1ccc(F)c(F)c1` [Example 2.38, 2-[4-(4-Amino-7-methyl-7H-pyrrolo[2,3-d]pyrimidin-5-yl)-benzylamino]-N-[(S)-1-(3,4-difluoro-phenyl)-ethyl]-nicotinamide] gave an IC50 in assay [1] (setting [4]) of under 100 nM. Moreover, the EC50 in assay [2] (setting [5]) lay in the range of 1000 to 10000 nM.
Compound `CNc1ncc2cc(OCCNc3ncc(C#N)cc3C(=O)N[C@@H](C)c3ccc(F)cc3)ccc2n1` [Example 250, (S)-5-cyano-N-(1-(4-fluorophenyl)ethyl)-2-(2-(2-(methylamino)quinazolin-6-yloxy)ethylamino)nicotinamide] had an IC50 in assay [1] (inhibition of PDK1 in vitro) of under 100 nM. Also, in assay [2] (setting [3]), the EC50 was under 1000 nM.
For the compound `Nc1ncnc2ccc(-c3ccc(CNc4ncccc4C(=O)NCc4ccccc4)s3)cc12` [Example 3.56, 2-({[5-(4-aminoquinazolin-6-yl)thiophen-2-yl]methyl}amino)-N-benzylpyridine-3-carboxamide (TFA salt)], the IC50 in assay [1] (setting [4]) was 100 to 1000 nM. Moreover, the EC50 in assay [2] (setting [5]) is 1000 to 10000 nM.
On the same counts, the results for `Cc1n[nH]cc1/C=C1\C(=O)Nc2cc(/C=C/CNc3ncccc3C(=O)NCc3ccc(F)c(F)c3)ccc21` [Example 15.10, N-(3,4-Difluoro-benzyl)-2-((E)-3-{3-[1-(3-methyl-1H-pyrazol-4-yl)-meth-(Z)-ylidene]-2-oxo-2,3-dihydro-1H-indol-6-yl}-allylamino)-nicotinamide] are under 100 nM and under 1000 nM.
As for `C[C@H](NC(=O)c1cc(C#N)cnc1NCc1ccc(-c2cnc3[nH]nc(CN)c3c2)cc1)c1ccc(F)cc1` [Example 152, (S)-2-(4-(3-(aminomethyl)-1H-pyrazolo[3,4-b]pyridin-5-yl)benzyl-amino)-5-cyano-N-(1-(4-fluorophenyl)ethyl)nicotinamide], the IC50 in assay [1] (inhibition of PDK1 in vitro) was under 100 nM. The EC50 in assay [2] (setting [3]) fell in the range of 1000 to 10000 nM.
The compound `Cn1cnc2cnc3ccc(-c4ccc(CNc5ncccc5C(=O)NCc5ccc(F)c(F)c5)s4)cc3c21` [Example 2.24] returned an IC50 in assay [1] (setting [4]) of under 100 nM. For the same compound, the EC50 in assay [2] (setting [5]) was under 1000 nM.
`Cc1cnc2c3cc(-c4ccc(CNc5ncccc5C(=O)N[C@@H](C)c5ccc(F)c(F)c5)s4)ccc3ncn12` [Example 49, (S)-N-(1-(3,4-difluorophenyl)ethyl)-2-((5-(3-methyl-imidazo[1,2-c]quinazolin-9-yl)thiophen-2-ylmethyl)amino) nicotinamide]: the IC50 in assay [1] (inhibition of PDK1 in vitro) is under 100 nM. For the same compound, the EC50 in assay [2] (setting [3]) was over 10000 nM.
For `C[C@H](NC(=O)c1cc(C#N)cnc1N[C@H](C)c1ccc(-c2cnc3[nH]nc(N)c3c2)cc1)c1ccc(F)cc1` [Example 423, 2-{(R)-1-[4-(3-Amino-1H-pyrazolo[3,4-b]pyridin-5-yl)-phenyl]-ethylamino}-5-cyano-N-[(S)-1-(4-fluoro-phenyl)-ethyl]-nicotinamide], in that order: under 100 nM and under 1000 nM.
On to `Nc1ncnc2ccc(-c3ccc(CNc4ncc(NC(=O)Cc5ccccc5)cc4C(=O)NCc4ccc(F)c(F)c4)s3)cc12` [Example 8.5.4, 2-({[5-(4-aminoquinazolin-6-yl)thiophen-2-yl]methyl}amino)-N-(3,4-difluorobenzyl)-5-[(phenylacetyl)amino] pyridine-3-carboxamide], for which, in assay [1] (setting [4]), the IC50 lay in the range of 1000 to 5000 nM. The half-maximal effective concentration (EC50) in assay [2] (setting [5]) was in the range of 1000 to 10000 nM.
On the same counts, the results for `C[C@H](NC(=O)c1cn(C)nc1NCc1ccc(-c2ccc3ncnc(N)c3c2)s1)c1ccc(F)c(F)c1` [Example 11.4, (S)-3-(((5-(4-aminoquinazolin-6-yl)thiophen-2-yl)methyl)amino)-N-(1-(3,4-difluorophenyl)ethyl) 1-methyl-1H-pyrazole-4-carboxamide] are under 100 nM and 1000 to 10000 nM.
With `C[C@H](NC(=O)c1cc(C#N)cnc1NCc1ccc(-c2cnc(N)c(C(=O)NCCN3CCN(C)CC3)n2)cc1)c1ccc(F)cc1` [Example 213, (S)-3-amino-6-(4-((5-cyano-3-(1-(4-fluorophenyl)ethylcarbamoyl)pyridin-2-ylamino)methyl)phenyl)-N-(2-(4-methylpiperazin-1-yl)ethyl)pyrazine-2-carboxamide], in assay [1] (inhibition of PDK1 in vitro), the IC50 was under 100 nM. In addition, in assay [2] (setting [3]), the EC50 was under 1000 nM.
The compound `C[C@H](NC(=O)c1c(NCc2ccc(-c3ccc4ncnc(N)c4c3)s2)ncc(Br)c1N)c1ccc(F)c(F)c1` [Example 3.87] returned an IC50 in assay [1] (setting [4]) of 1000 to 5000 nM. Besides, the EC50 in assay [2] (setting [5]) was over 10000 nM.
The compound `Nc1n[nH]c2ncc(-c3ccc(CNc4ncc(C(F)(F)F)cc4C(=O)Nc4ccccn4)cc3)cc12` [Example 274] registered an IC50 in assay [1] (inhibition of PDK1 in vitro) of under 100 nM. In assay [2] (setting [3]), the EC50 lay within 1000 to 10000 nM.
In assay [1] (setting [4]), `Nc1ncnc2ccc(-c3ccc(CNc4ncccc4C(=O)NCc4ccc(F)c(F)c4F)s3)cc12` [Example 3.16, 2-({[5-(4-aminoquinazolin-6-yl)thiophen-2-yl]methyl}amino)-N-(2,3,4-trifluorobenzyl)pyridine-3-carboxamide (TFA salt)] displayed an IC50 of under 100 nM. In addition, in assay [2] (setting [5]), the EC50 is 1000 to 10000 nM.
`C[C@H](NC(=O)c1cc(C#N)cnc1NCc1ccc(-c2ccc(N)nc2)cc1)c1ccc(F)c(F)c1` [Example 367, (S)-2-(4-(6-aminopyridin-3-yl)benzylamino)-5-cyano-N-(1-(3,4-difluorophenyl)ethyl) nicotinamide]: in assay [1] (inhibition of PDK1 in vitro), the IC50 is under 100 nM. For the same compound, in assay [2] (setting [3]), the EC50 is under 1000 nM.
On the same counts, the results for `N#Cc1cnc(NCc2ccc(-c3cnc4[nH]c(=O)[nH]c4c3)cc2)c(C(=O)NCc2ccc(F)cc2)c1` [Example 358, 5-cyano-N-(4-fluorobenzyl)-2-(4-(2-oxo-2,3-dihydro-1H-imidazo[4,5-b]pyridin-6-yl)benzylamino)nicotinamide] are under 100 nM and under 1000 nM.
